For assay [1], the target named is T1, peptide 551-574 coated on CM5 chips (Mus musculus, UniProt Q08481).
T1 construct: made in house; host or cells: chemical synthesis (no expression host)
Kind of assay: Surface plasmon resonance (BIAcore) homophilic binding of peptide 551-574. As to conditions: homophilic interaction. The method, then: Homophilic binding association and dissociation constants were calculated by surface plasmon resonance (BIAcore® 2000, GE). In brief, peptide 551-574 was coated at 3400 resonance units (RU) on CM5 chips according to the manufacturer's instructions. Soluble peptide 551-574 (12.5, 25, 50 and 100 μM in 200 μl of 10 mM HEPES pH 7.4, 150 mM NaCl, 0.005% Tween 20) was injected at 20 μl/min at 25° C., on the peptide-coated channel and on an uncoated channel. Dissociation was monitored for 300 seconds. Association (kon) and dissociation (koff) constants were calculated using the BlAevaluation® 3.0 Software (GE).
In general terms: In SPR one partner is held on a chip, and binding of the other changes the refractive index at the surface.

Assay [2] concerns C57BL/6J mice immunized with MOG35-55 peptide. Nature of the assay: Experimental Autoimmune Encephalomyelitis (EAE) model. In kind it is in vivo, mouse. As to conditions: single peptide shot. The method, then:
Twelve-week old female C57BL/6J mice were immunized with 300 μg of MOG35-55 peptide emulsified in Complete Freund's Adjuvant 1:1 by volume containing 800 μg of nonviable desiccated Mycobacterium tuberculosis H37RA. A final volume of 200 μl of the emulsion was injected subcutaneously at 4 sites (50 μl/site) over the flanks. In addition, 300 ng of Pertussis toxin was injected intravenously (retro-orbital plexus) on the same day and 2 days later. Clinical signs of EAE ware assessed daily by the following scoring system: 0, no signs; 1, hindlimb weakness; 2, hindlimb weakness and tail paralysis; 3, hindlimb and tail paralysis; 4, hindlimb and tail paralysis and forelimb weakness; 5, moribund state; and 6, death. The peak (waxing phase) occured around day 21. In this C57BL/6J mouse model, there was no waning phase as assessed in our laboratory up to day 41.
The experiment was carried out with ten mice per group. The mice of each group were treating with either of: • PBS; • PepReg (SEQ ID NO: 3); or • PepScra (SEQ ID NO: 14).
The dosing was of 50 μg of peptide per mice and per day (i.e. about 2 mg/Kg per day). The peptide was administered by a subcutaneous injection.

In the next assay the test system is scramble peptide. Nature of the assay: Surface plasmon resonance (BIAcore), channel coated with the scramble peptide. In kind it is binding. As to conditions: injection of soluble peptide.

One may read the kon as a measure of how fast the partners come together. The koff is the first-order rate constant of dissociation.

Residues, ends and D or L forms follow the SMILES beside them.

As for `CSCC[C@H](NC(=O)[C@H](CO)NC(=O)[C@@H](N)CO)C(=O)N[C@@H](CCCNC(=N)N)C(=O)N[C@H](C(=O)N[C@@H](CO)C(=O)N1CCC[C@H]1C(=O)N[C@@H](CCCNC(=N)N)C(=O)N[C@@H](CO)C(=O)N[C@@H](CO)C(=O)N[C@H](C(=O)N[C@@H](CC(C)C)C(=O)N[C@@H](C)C(=O)N[C@H](C(=O)N[C@@H](CCCNC(=N)N)C(=O)N[C@H](C(=O)N[C@@H](Cc1ccccc1)C(=O)N[C@@H](CC(C)C)C(=O)N[C@@H](C)C(=O)N1CCC[C@H]1C(=O)N[C@@H](Cc1c[nH]c2ccccc12)C(=O)N[C@@H](CCCCN)C(=O)N[C@@H](CCCCN)C(=O)O)C(C)C)C(C)C)[C@@H](C)O)[C@@H](C)O` [peptide 551-574] (H-SSMRTSPRSSTLAVRVFLAPWKK-OH), the on-rate constant (kon) in assay [1] (25° C., analyte 12.5-100 μM, read-out: association constant (kon)) came to 134 ± 120 M⁻¹ s⁻¹. For the same compound, the koff in assay [1] (25° C., read-out: dissociation constant (koff)) worked out at 0.00158 s⁻¹. Also, the Kd in assay [1] (read-out: affinity at equilibrium) stood at 17.8 ± 9.7 µM. Also, in assay [2], the “duration of protective effect in EAE” value was “up to 5 days”. Further, the “signal on a channel coated with the scramble peptide” value in the assay on scramble peptide is listed as “negligible signal”.

The record behind these values is patent US10253085B2, “CD31 peptides for the treatment of thrombotic or autoimmune disorders” (INSERM (INSTITUT NATIONAL DE LA SANTE ET DE LA RECHERCHE …, priority 2008, dated 2019).
